In patent publication US20040029276A1, “Fish attractants” (priority 2000, published 2004):

Columns and labels:
[1] = tested on: carp; experiment: Behavioural response of carp in a Perspex flow-through experimental flume; format: in vivo
Experimental: The behaviour of carp in response to 17,20β-dihydroxy-4-pregnen-3-one was studied in a Perspex flow-through experimental flume. Fish were placed in the flume individually and allowed to acclimatise for a minimum of 1 hour before each experiment. The first set of experiments determined the behavioural response of male (n=5) and female (n=5) carp to serial dilutions of pure and synthetic form of 17,20β-dihydroxy-4-pregnen-3-one. Dilutions ranged from one part in 10^5 to one part in 10^11. The second set of experiments tested the behavioural response of male and female carp (n=6) to the same serial dilutions of synthetic 17,20β-dihydroxy-4-pregnen-3-one as used in Experiment 1, but with the addition of 5 dyed-gelatine pellets on the bottom of the flume. […] This feeding behaviour was characterised by the following: […]

[2] = tested on: male and female carp; experiment: Electrophysiological and behavioural studies in an experimental behaviour chamber; format: in vivo
Source text: A particular composition which includes either a pure or crude synthetic form of 17,20β-dihydroxy-4-pregnen-3-one with an ethanol carrier has been tested by the inventors in laboratory experiments.

[3] = tested on: olfactory system of the male fish; conditions: olfactory detection of the sex pheromone, Sorenson et al. 1987; cited from earlier work

## C[C@@H](O)[C@@]1(O)CC[C@H]2[C@@H]3CCC4=CC(=O)CC[C@]4(C)[C@H]3CC[C@@]21C [17,20β-dihydroxy-4-pregnen-3-one]
[1]; added to the behaviour chamber at concentrations ranging from 10^−5 to one part in 10^−10
  feeding behaviour in carp: resulted in feeding behaviour in carp
[1]; sexually immature carp
  attraction of fish: attracted immature carp
  feeding behaviour in immature carp: resulted in feeding behaviour in these individuals
[2]; experimental behaviour chamber
  feeding behaviour on detection of the hormone: results in feeding behaviour
[2]; pure or crude synthetic form with an ethanol carrier
  detection of the hormone by the fish: detected by both male and female carp
[3]
  threshold concentration for the male fish: about 10^−13 M
